In PMC10126419, “pyHeart4Fish: Chamber-specific heart phenotype quantification of zebrafish in high-content screens” (Frontiers in Cell and Developmental Biology, 2023):
Entries after “also recorded” stand apart in the source; their conditions may differ. Where a name gives a salt, the structure may show the parent alone. Read-outs that look alike come from different tables or passages of the source.

Legend:
zebrafish embryos [1] = assay: Manually assessed pericardial edema in treated zebrafish; assay type: in vivo; details: for Pericardial edema severity: myl7:eGFP zebrafish
Source text: FIGURE 4 Quantitative data analysis with pyHeart4Fish. […] (A) The left graph presents the detected heart rate derived from the fast fourier transformation (FFT). […] (B) Percentual data on the severity of manually assessed pericardial edema in treated Tg(myl7:eGPF)^twu34/+ zebrafish. (C) The relative contractility derived from percentual size changes of each heart chamber (left graph). Approximate ejection fraction determined by chamber volume changes (right graph). […] The number of fish analyzed is shown in brackets after the treatment condition. Dotted gray lines indicate z-scores of ±1.96 and statistical significance with an alpha error of 5%.

[2] = system: Tg(myl7:eGFP)^twu34/+ zebrafish embryos; details: in vivo;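 note: embryos exposed 24 h from 24 hpf in 0.2% DMSO egg water, tricaine-anaesthetised, heartbeat videos imaged at 470 nm and hearts analysed chamber by chamber from pixel-intensity beat curves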
Method: (§1) Embryos were dechorionated at 21 hpf using 0.22 mg/ml pronase (Merck Chemicals) for 12 min. Then, embryos were carefully washed three times with egg water and transferred into a 96-deep-well plate. After incubation at 28°C for 3 h, excess water was removed with a glass capillary and exchanged with 100 µL/well of 20 µM compound solution from the Prestwick Chemical Library (Prestwick Chemicals, France) in 0.2% DMSO (v/v) in egg water. […] Subsequently, embryos were exposed to compounds for 24 h at 28°C in the dark to enable testing of light-sensitive compounds. Solutions were removed at 48 hpf before wells containing embryos were washed three times with system water. Then, treated embryos were transferred into 12-well plates containing 1 ml 0.03% tricaine in system water (Sigma-Aldrich, Germany). Testing different concentrations (5–80 µM) of compounds and their respective controls followed the above protocol.
(§2) Oriented embryos in 96-well plates were automatically imaged using an [sequence] Imaging Machine ([sequence] Imaging, Germany) widefield microscope. Z-stacks of 10 slices (dZ = 15 µm) were acquired in brightfield (BF) and 470 nm channels with a 4×0.13 numerical aperture objective. The focal plane was detected in the 470 nm channel using a course and secondary fine software autofocus. BF integration time was fixed at 20 ms exposure time and 55% LED intensity. The exposure time for the 470 nm channel was set to 10 ms with a 10% LED intensity. Heartbeat videos of 6 s at 6 frames/second (f/s) were acquired with a time-lapse at a 0 s interval in the focus plane acquired after secondary autofocus using the previously described integration and exposure settings with a 10×0.25 numerical aperture objective.
(§3) Hearts are analyzed chamber-specifically via the user-assisted region of interest (ROI) selection. Cardiac morphology parameters (HS and shape) are extracted as the median of the first six images/frames. Raw data of heartbeat curves for the atrium and ventricle are derived from the sum of pixel intensities and normalized chamber areas. Frequencies (in s^-1) of atrium and ventricle contraction are obtained by applying sine-curve fitting or fast Fourier transformation (FFT) using the SciPy modules “optimize.curve_fit” and “fft.rfft/fft.rfftfreq”, respectively ([Virtanen et al., 2020]). Curve fitting is performed with a maximum of 30 iterations while increasing the frequencies of the fitted sine function. The best fit is selected using the correlation coefficient between the raw data and the fitted function implemented in the NumPy package. A fitted sine function and fitting score are also determined for a truncated signal (first quarter), and the best-fitted sine function is kept to account for an unstable heartbeat signal. In the case of FFT, the first harmonic of the FFT signal is used as the frequency of the atrium or ventricle contraction. Analysis with pyHeart4Fish provides heartbeat videos in GIF format, heartbeat curves as PNG/PDF files and a data sheet containing meta information and cardiac parameters.

[3] = system: Tg(myl7:eGFP)^twu34/+ zebrafish embryos; assay: Chamber-specific quantitative heart phenotyping with pyHeart4Fish; details: 20 µM; for Effect on heart function / morphology: contractility, conduction, arrhythmia, HS, EF / Effect on heart rate: vs DMSO controls; for Arrhythmia / Conduction defect: number of fish;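 for all read-outs here: embryos exposed 24 h from 24 hpf in 0.2% DMSO egg water, tricaine-anaesthetised, heartbeat videos imaged at 470 nm and hearts analysed chamber by chamber from pixel-intensity beat curves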
Method: as §1, §2, §3

[4] = system: Tg(fli1a:nEGFP)^y7 zebrafish embryos; assay: Primary high-content heart rate screen of the Prestwick Chemical Library (HeartBeat software v.2.1); assay type: in vivo; details: 20 µM
Source text: Acquired image series were preprocessed and analyzed using the previously published HeartBeat software v.2.1 and provided scripts ([Gierten et al., 2020]). For increased comparability between experiments, each quantitative HR value (beats per minute) was divided by the mean of the DMSO controls from the respective experiment. This procedure minimizes variation and creates specific fold-change values that are z-score normalized in the next step. A 90% CI was used to reduce the probability of false-negative results. Finally, data from compounds with insufficient N and known aquatic toxicity were removed.
Based on a previously established high-throughput screening pipeline, we performed a high-content drug screen in zebrafish for cardiovascular modulators ([Poureetezadi et al., 2014]; [Gierten et al., 2020]; [Westhoff et al., 2020]). […] About 98% of the library’s compounds are approved by the Food and Drug Administration (FDA), European Medicines Agency (EMA) or other regulatory agencies. The drug library was screened at a concentration of 20 µM for 24 h until 48 hpf using the transgenic zebrafish line Tg(fli1a:nEGFP)^y7. Subsequently, BF images and videos were captured at 2 dpf to assess gross morphology. HR was analyzed with the previously published tool HeartBeat (v.2.1) to identify potential hit compounds. A 90% CI threshold for effect sizes of ±1.64 was used to reduce false-negative results. […] The Open Targets platform and the Mayo Clinic Drugs and Supplements Database were systematically searched for compound names and common synonyms ([Drugs and Supplements, 2022]; [Open Targets, 2022]). The Medical Subject Headings (MeSH) terms “compound name” and “heart rate” were applied to NCBI PubMed literature research before the first five pages of publications sorted by relevance were screened for relevant information. Furthermore, compounds were filtered for unknown targets (n = 3), FDA black box warning (n = 6) and aquatic toxicity (n = 4). […] Therefore, compounds with n < 3 were excluded (n = 7).

[5] = design: method as in Prestwick Chemical Library; details: solvents; library annotation, ref Prestwick Chemical Library; cited from earlier work
zebrafish embryos [6] = assay: Gross morphology / development of treated zebrafish 2 dpf (brightfield); assay type: in vivo; details: 20 µM; for Gross morphology / developmental and teratogenic effects: 2 dpf
Method: FIGURE 5 Morphology of treated zebrafish 2 dpf. An overview of the gross phenotypes of treated zebrafish 2 days post-fertilization. All compounds were dissolved in DMSO; therefore, DMSO served as the negative control. NaCl served as the salt control. The effects of atorvastatin treatment on zebrafish embryos were previously established; thus, this drug was used as a positive control for cardioactivity. The aquatic toxic compound enilconazole was used as the toxic positive control. […] The black arrow in the image of iopanoic acid-treated zebrafish embryo indicates caudal fin deformity. The scale bar indicates 500 µm in overview brightfield images and 150 µm in fluorescence images. (a) Atrium; (v) ventricle.

zebrafish embryos [7] = assay: Toxicity score (ToxScore) at increasing compound concentrations
Method: as §1
Embryos that were deceased and not intact were assigned a max. ToxScore value of 5.

[8] = number of fish, 20 µM, Tg(myl7:eGFP)
[9] = Tg(fli1a:nEGFP)^y7, zebrafish, in vivo, 24 h
[10] = 24 h until 48 hpf, Tg(fli1a:nEGFP)y7

Edema: Mild (zebrafish embryos [1]; [8]) | Edema: Moderate (zebrafish embryos [1]; [8]) | Edema: No edema (zebrafish embryos [1]; [8]) | Edema: Severe (zebrafish embryos [1]; [8]) | Structure (SMILES) | Arrhythmia [3] | Conduction defect [3] | Z-score Heart rate [4, 9] [z-score] | Lit. Solubility [5] | Gross morphology / developmental and teratogenic effects (zebrafish embryos [6]) | other results
 |  |  |  | [Cl-].[Na+] [NaCl, sodium chloride] |  |  |  |  |  | Edema: Mild (zebrafish embryos [1]; zebrafish, in vivo): 7; Edema: Moderate (zebrafish embryos [1]; zebrafish, in vivo): 0; Edema: No edema (zebrafish embryos [1]; zebrafish, in vivo): 8; Edema: Severe (zebrafish embryos [1]; zebrafish, in vivo): 0; Arrhythmia [2]: 1; Chamber size Atrium Max. Contraction [2]: -0.090 z-score; Chamber size Atrium Max. Dilation [2]: -0.215 z-score; Chamber size Ventricle Max. Contraction [2]: -0.643 z-score; Chamber size Ventricle Max. Dilation [2]: 0.353 z-score; Conduction defect [2]: 0; Effect on heart function / morphology: contractility, conduction, arrhythmia, HS, EF [2]: did not significantly affect heart morphology or functionality; Ejection Fraction Atrium [2]: -0.097 z-score; Ejection Fraction Ventricle [2]: 1.036 z-score; FFT freq Atrium (heart rate) [2]: -0.679 z-score; FFT freq Ventricle (heart rate) [2]: -0.573 z-score; Heart size [2]: 0.745 z-score; Relative contractility Atrium [2]: -0.00158 z-score; Relative contractility Ventricle [2]: 0.272 z-score
5 | 1 | 5 | 0 | CC(C)c1c(C(=O)Nc2ccccc2)c(-c2ccccc2)c(-c2ccc(F)cc2)n1CC[C@@H](O)C[C@@H](O)CC(=O)O [Atorvastatin, atorvastatin] | 11 | 0 |  |  |  | Effect on heart function / morphology: contractility, conduction, arrhythmia, HS, EF [3]: did not cause electrophysiological conduction defects; Effect on heart rate [3]: significantly decreased HR
 |  |  |  | CN1CCCC(n2nc(Cc3ccc(Cl)cc3)c3ccccc3c2=O)CC1 (stereo not shown) [Azelastine hydrochloride] |  |  | -2.598 | H2O, EtOH, DMSO |  | 
4 | 0 | 4 | 0 | N=C(N)c1ccc(OCCCCCOc2ccc(C(=N)N)cc2)cc1 [Pentamidine isethionate] | 1 | 0 |  |  | did not reveal teratogenic effects | 
2 | 0 | 2 | 0 | CN(C)CCCOc1nn(Cc2ccccc2)c2ccccc12 [Benzydamine HCl] | 1 | 0 |  |  |  | Treated embryos with pericardial edema (zebrafish embryos [1]; 20 µM): 50%; Effect on heart function / morphology: contractility, conduction, arrhythmia, HS, EF [3]: do not induce arrhythmia; Effect on heart function / morphology: contractility, conduction, arrhythmia, HS, EF ([3]; listed as BZY): no conduction defects or arrhythmias were detected; also recorded: relative ventricle contractility increased significantly
1 | 0 | 4 | 0 | Cc1cc(/C=C/c2ccc3cc(N(C)C)ccc3[n+]2C)c(C)n1-c1ccccc1 [Pyrvinium pamoate] | 1 | 0 |  |  | no teratogenic effects | Effect on heart function / morphology: contractility, conduction, arrhythmia, HS, EF [3]: did not affect relative contractility, conduction, and HS
 |  |  |  | CCOC(=O)N1CCC(=C2c3ccc(Cl)cc3CCc3cccnc32)CC1 [Loratadine] |  |  |  |  |  | Z-score Heart rate [4, 10]: -1.771 z-score
 |  |  |  | CN(C)CCC(c1ccc(Br)cc1)c1ccccn1 (stereo not shown) [Brompheniramine maleate] |  |  | -2.122 |  |  | 
 |  |  |  | CN1CCC(OC(c2ccccc2)c2ccccc2)CC1 [Diphenylpyraline hydrochloride] |  |  | -3.549 | H2O, EtOH |  | 
 |  |  |  | CN1CCN(C(c2ccccc2)c2ccc(Cl)cc2)CC1 (stereo not shown) [Chlorcyclizine hydrochloride] |  |  |  | H2O, CHCl3 |  | Z-score Heart rate [4, 10]: -2.061 z-score
1 | 3 | 0 | 1 | CC(=O)[C@H]1CC[C@H]2[C@@H]3CC=C4C[C@@H](O)CC[C@]4(C)[C@H]3CC[C@]12C [Pregnenolone] | 1 | 1 |  |  | teratogenic effects | Pericardial edema severity (zebrafish embryos [1]; 20 µM): moderate to severe pericardial and yolk edema; Effect on heart function / morphology: contractility, conduction, arrhythmia, HS, EF ([3]; listed as P5): relative contractility of both heart chambers was affected by impaired contraction; also recorded: HS and morphology were not affected
 |  |  |  | CN(C)CCOC(c1ccc(Cl)cc1)c1ccccn1.O=C(O)/C=C\C(=O)O (stereo not shown) [Carbinoxamine maleate salt] |  |  |  | H2O, EtOH, CHCl3 |  | 
 |  |  |  | Cc1ccc(/C(=C\CN2CCCC2)c2ccccn2)cc1.Cl [Triprolidine hydrochloride] |  |  |  | H2O, MeOH, EtOH |  | 
 |  |  |  | CN1CCC[C@@H]1CCO[C@](C)(c1ccccc1)c1ccc(Cl)cc1 [Clemastine fumarate] |  |  | -2.7618 | MeOH |  | 
 |  |  |  | CN1CCCN(C(c2ccccc2)c2ccc(Cl)cc2)CC1.Cl.Cl (stereo not shown) [Homochlorcyclizine dihydrochloride] |  |  |  |  |  | Z-score Heart rate [4, 10]: -1.853 z-score
 |  |  |  | CC(C)(C)c1ccc(C(O)CCCN2CCC(C(O)(c3ccccc3)c3ccccc3)CC2)cc1 (stereo not shown) [Terfenadine] |  |  | -5.761 | EtOH/H2O:50/50 |  | 
5 | 0 | 0 | 0 | OCCN1CCN(CCCN2c3ccccc3C=Cc3ccccc32)CC1 [Opipramol diHCl] | 1 | 0 |  |  | mild developmental delay | Pericardial edema severity (zebrafish embryos [1]; 20 µM): mild edema; Effect on heart function / morphology: contractility, conduction, arrhythmia, HS, EF [3]: do not induce arrhythmia; Effect on heart rate [3]: did not affect HR; Effect on heart function / morphology: contractility, conduction, arrhythmia, HS, EF ([3]; listed as OPI): significantly reduced relative ventricular contractility

Structure (SMILES) | Edema: Mild (zebrafish embryos [1]; [8]) | Edema: Moderate (zebrafish embryos [1]; [8]) | Edema: No edema (zebrafish embryos [1]; [8]) | Edema: Severe (zebrafish embryos [1]; [8]) | Arrhythmia [3] | Conduction defect [3] | Z-score Heart rate [4, 9] [z-score] | Lit. Solubility [5] | Gross morphology / developmental and teratogenic effects (zebrafish embryos [6]) | other results
C=CCOC(Cn1ccnc1)c1ccc(Cl)cc1Cl (stereo not shown) [Enilconazole, enilconazole] | 2 | 0 | 3 | 0 | 1 | 0 |  |  | inhibited pigmentation | Effect on heart rate [3]: significantly reduced HR; Treated fish with developmental delays (zebrafish embryos [6]; both zebrafish lines): 100%; Concentration-dependent toxic effects (zebrafish embryos [7]; 5–80 µM): dose-dependent
CN(C)CCN(Cc1ccccc1)c1ccccn1 [Tripelennamine HCl, tripelennamine HCl] | 4 | 5 | 2 | 0 | 0 | 0 | -2.358 | DMSO | development was not delayed | Effect on heart rate [3]: decreased HR; ToxScore, highest over tested concentrations (zebrafish embryos [7]; 5–80 µM): ≤ 2.6
Oc1ccc(OCc2ccccc2)cc1 [Monobenzone] | 3 | 2 | 3 | 2 | 3 | 0 |  |  | caused depigmentation without delaying development | Effect on heart function / morphology: contractility, conduction, arrhythmia, HS, EF [3]: did not cause any other alterations to heart phenotypes; ToxScore (zebrafish embryos [7]; 80 µM): ≤ 2.5
